From patent US12583818B2 (DAEGU-GYEONGBUK MEDICAL INNOVATION FOUNDATION, priority 2020, dated 2026)
Like-named read-outs stand apart in the source and are kept apart here.

Key:
[1] = test system: MDA-MB 231 triple negative breast cancer cell line; assay: MDA-MB 231 protein expression inhibition (Western blotting, cycline D1 vs Vinculin); type: cell-based; conditions: Homo sapiens, compound 10 μM, 72 hours, cycline D1 Western blot, read-out: MBA-MB-231 (amount of the protein compared to the DMSO-treated control group)
Procedure: In order to confirm the ability of the compound represented by formula 1 according to the present invention to inhibit the protein expression of MDA-MB 231 triple negative breast cancer cell line, the following experiment was performed, and the results are shown in Table 3 below.
MDA-MB-231 cells were cultured in a 5% CO2 incubator at 37° C. using RPMI medium supplemented with 10% FBS and 1% penicillin/streptomycin.
The cells were washed with PBS once a day, and then replaced with a new medium. The cells grown at the density of at least 90% 1 day before the experiment were detached using trypsin/EDTA, and then plated at the density of 100,000 per well in a 6-well plate.
On the next day of culture, the compound prepared in each example was treated at a concentration of 10 μM, and DMSO was treated at a concentration of 0.1% of the total as the control, followed by incubation for 72 hours. After 72 hours, the cells were washed twice with PBS, collected by scraping, and centrifuged at 13,000 rpm for 3 minutes to remove all the supernatant and only cells were taken.
RIPA buffer (containing 1× protease inhibitor and phosphatase inhibitor) was added to the prepared cells (80 μl/well), and the plate was shaken once every 5 minutes to disrupt the cells for a total of 15 minutes. The disrupted cells were centrifuged at 13,000 rpm for 15 minutes to collect only the supernatant protein. The obtained protein was quantified using a BCA protein quantification kit (Pierece, MA, USA), and a total of 10 μg of the protein was used for Western blotting.
The protein sample was isolated by 10% SDS-PAGE, and transferred to a PVDF membrane. Anti-human cycline D1 antibody (Cell signal) and anti-Vinculin antibody were bound to the protein sample, and the expression of the protein was measured by using an ECL reagent and LAS4000 equipment. The measurement results were quantified and generalized using ImageJ. The results are shown in Table 3 below by dividing the grades A to D according to the amount of the protein compared to the DMSO-treated control group.

[2] = target: T1, Pin1 (Homo sapiens, UniProt Q13526); assay: Evaluation of Pin1 enzyme inhibitory activity (Sensolyte Green Pin1 assay kit); type: biochemical
T1 construct: purchased Anaspec
Procedure, shortened: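 Pin1 activity was measured with a fluorogenic kit assay (Sensolyte Green) using substrate prepared at 1 μM and protein at 50 μg/ml, both pre-mix concentrations. Compound working solutions were 100, 10, 1 or 0.1 μM, and reactions ran 2 h at room temperature in the dark, read at 490/520 nm. Inhibition was graded A–D by concentration.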

[3] = test system: A2780 cells (ovarian cancer cells); assay: Cell viability of A2780 cells (Cell-titer Glo); type: cell-based; conditions: Homo sapiens
Procedure, shortened: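 A2780 ovarian cancer cells seeded at 3000 viable cells/well in RPMI-1640 with 10% FBS, dosed the next day and grown 3 days. Viability measured by Cell-titer Glo luminescence.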

[4] = test system: A2780-SP cells (ovarian cancer stem cells); assay: Sphere cell viability of A2780-SP cells (Cell-titer Glo); type: cell-based
Procedure, shortened: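 A2780-SP ovarian cancer stem cells grown as spheres in ultra-low-attachment wells (1,500 cells/well) in neurobasal stem-cell medium with bFGF, EGF, B27. Compound added the day after plating, re-dosed on day 4, 8-day culture total; viability by CellTiter-Glo luminescence.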

[5] = concentration at which the Pin1 enzyme activity is inhibited, 2 hours at room temperature, fluorescence 490 nm/520 nm, read-out: Pin 1 inhibition
[6] = 72 h, cell viability, culture for 3 days, read-out: A2780
[7] = A2780, Table 5, read-out: A2780 cell concentration
[8] = Table 2, read-out: concentration at which Pin1 inhibitory activity was exhibited
[9] = 192 h, sphere cell viability, culture for 8 days, read-out: A2780-SP
[10] = Table 5, read-out: the concentration (second list of b710, cell line not named; matches A2780-SP column)

T1 sequence (Q13526 whole entry): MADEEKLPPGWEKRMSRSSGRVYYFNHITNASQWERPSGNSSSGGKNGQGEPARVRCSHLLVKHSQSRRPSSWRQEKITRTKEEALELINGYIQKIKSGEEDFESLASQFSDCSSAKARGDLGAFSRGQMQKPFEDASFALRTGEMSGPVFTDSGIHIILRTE

Row | SMILES | activity at 10 µM [1] [%] | IC50 [2, 5] [µM] | IC50 [3, 6] [µM] | IC50 [3, 7] [µM] | IC50 [2, 8] [µM] | IC50 [4, 9] [µM] | IC50 [4, 10] [µM]
1 | CN(C)CCCOc1ccc(S(=O)(=O)NCCCc2c[nH]c3ccccc23)cc1 [Example 22, N-(3-(1H-indol-3-yl)propyl)-4-(3-(dimethylamino)propoxy)benzenesulfonamide] | 70 to 100 | 10 to 100 |  |  |  |  | 
2 | CN1CCN(CCCOc2ccc(S(=O)(=O)NCCCc3c[nH]c4ccccc34)cc2)CC1 [Example 31, N-(3-(1H-indol-3-yl)propyl)-4-(3-(4-methylpiperazin-1-yl)propoxy)benzenesulfonamide] | 50 to 70 | 1 to 10 |  |  |  |  | 
3 | CCN(CC)CCCOc1ccc(S(=O)(=O)NCCCc2c[nH]c3ccccc23)cc1 [Example 35, N-(3-(1H-indol-3-yl)propyl)-4-(3-(diethylamino)propoxy)benzenesulfonamide] | 0 to 35 | 10 to 100 |  |  |  |  | 
4 | CCN1CCN(CCCOc2ccc(S(=O)(=O)NCCCc3c[nH]c4ccccc34)cc2)CC1 [Example 36, N-(3-(1H-indol-3-yl)propyl)-4-(3-(4-ethylpiperazin-1-yl)propoxy)benzenesulfonamide] | 70 to 100 | 1 to 10 |  |  |  |  | 
5 | O=C1CCCN1CCCOc1ccc(S(=O)(=O)NCCCc2c[nH]c3ccccc23)cc1 [Example 44, N-(3-(1H-indol-3-yl)propyl)-4-(3-(2-oxopyrrolidin-1-yl)propoxy)benzenesulfonamide] | 70 to 100 | > 100 |  |  |  |  | 
6 | O=S(=O)(NCCCc1c[nH]c2ccccc12)c1ccc(OCCCN2CCNCC2)cc1 [Example 45, N-(3-(1H-indol-3-yl)propyl)-4-(3-(piperazin-1-yl)propoxy)benzenesulfonamide] | 70 to 100 | 1 to 10 |  |  |  |  | 
7 | CN1CCC(CCOc2ccc(S(=O)(=O)NCCCc3c[nH]c4ccccc34)cc2)CC1 [Example 55, N-(3-(1H-indol-3-yl)propyl)-4-(2-(1-methylpiperidin-4-yl)ethoxy)benzenesulfonamide] | 70 to 100 | 10 to 100 |  |  |  |  | 
8 | CN1CCN(CCCOc2ccc(S(=O)(=O)NCCCc3c[nH]c4ccc(F)cc34)cc2)CC1 [Example 56, N-(3-(5-fluoro-1H-indol-3-yl)propyl)-4-(3-(4-methylpiperazin-1-yl)propoxy)benzenesulfonamide] | 35 to 50 | < 1 | 1 to 10 | < 10 | < 1 | < 1 | < 1
9 | CN1CCN(CCCOc2ccc(S(=O)(=O)N3CCC(c4c[nH]c5ccccc45)CC3)cc2)CC1 [Example 57, 3-(1-((4-(3-(4-methylpiperazin-1-yl)propoxy)phenyl)sulfonyl)piperidin-4-yl)-1H-indole] | 70 to 100 | 10 to 100 |  |  |  |  | 
10 | Cc1[nH]c2ccccc2c1CCCNS(=O)(=O)c1ccc(OCCCN2CCN(C)CC2)cc1 [Example 58, N-(3-(2-methyl-1H-indol-3-yl)propyl)-4-(3-(4-methylpiperazin-1-yl)propoxy)benzenesulfonamide] | 70 to 100 | 1 to 10 |  |  |  |  | 
11 | CN1CCC(CCCOc2ccc(S(=O)(=O)NCCCc3c[nH]c4ccc(F)cc34)cc2)CC1 [Example 59, N-(3-(5-fluoro-1H-indol-3-yl)propyl)-4-(3-(1-methylpiperidin-4-yl)propoxy)benzenesulfonamide] | 35 to 50 | 1 to 10 | 1 to 10 | < 10 |  | < 1 | < 1
12 | CN1CCC(CCCOc2ccc(S(=O)(=O)NCCCc3c[nH]c4ccccc34)cc2)CC1 [Example 60, N-(3-(1H-indol-3-yl)propyl)-4-(3-(1-methylpiperidin-4-yl)propoxy)benzenesulfonamide] | 50 to 70 | 1 to 10 |  |  |  |  | 
13 | O=S(=O)(NCCCc1c[nH]c2ccc(F)cc12)c1ccc(OCCCN2CCNCC2)cc1 [Example 61, N-(3-(5-fluoro-1H-indol-3-yl)propyl)-4-(3-(piperazin-1-yl)propoxy)benzenesulfonamide] | 0 to 35 | < 1 | 1 to 10 | < 10 | < 1 | < 1 | < 1
14 | CN1CCN(CCCOc2ccc(S(=O)(=O)NCCCc3c[nH]c4ccc(Cl)cc34)cc2)CC1 [Example 66, N-(3-(5-chloro-1H-indol-3-yl)propyl)-4-(3-(4-methylpiperazin-1-yl)propoxy)benzenesulfonamide] | 0 to 35 | < 1 | 1 to 10 | < 10 | < 1 | < 1 | < 1
15 | CNC1CN(CCCOc2ccc(S(=O)(=O)NCCCc3c[nH]c4ccc(Cl)cc34)cc2)C1 [Example 77, N-(3-(5-chloro-1H-indole-3-yl)propyl)-4-(3-(3-(methylamino)azetidine-1-yl)propoxy)benzenesulfonamide] | 0 to 35 | < 1 | > 10 |  | < 1 | 1 to 10 | 
16 | O=S(=O)(NCCCc1c[nH]c2ccc(Cl)cc12)c1ccc(OCCCN2CCC(Cl)CC2)cc1 [Example 78, N-(3-(5-chloro-1H-indol-3-yl)propyl)-4-(3-(4-chloropiperidin-1-yl)propoxy)benzenesulfonamide] | 0 to 35 | 1 to 10 |  |  |  |  | 
17 | O=S(=O)(NCCCc1c[nH]c2ccc(Cl)cc12)c1ccc(OCCCN2CCC(F)CC2)cc1 [Example 80, N-(3-(5-chloro-1H-indol-3-yl)propyl)-4-(3-(4-fluoropiperidin-1-yl)propoxy)benzenesulfonamide] | 35 to 50 | 1 to 10 |  |  |  |  | 
18 | O=S(=O)(NCCCc1c[nH]c2ccc(Cl)cc12)c1ccc(OCCCN2CCC(C(F)(F)F)CC2)cc1 [Example 81, N-(3-(5-chloro-1H-indol-3-yl)propyl)-4-(3-(4-(trifluoromethyl)piperidin-1-yl)propoxy)benzenesulfonamide] | 0 to 35 | 1 to 10 |  |  |  |  | 
19 | O=S(=O)(NCCCc1c[nH]c2ccc(Cl)cc12)c1ccc(OCCCN2CCC(F)(F)CC2)cc1 [Example 82, N-(3-(5-chloro-1H-indol-3-yl)propyl)-4-(3-(4,4-difluoropiperidin-1-yl)propoxy)benzenesulfonamide] | 70 to 100 | 1 to 10 |  |  |  |  | 
20 | CN1CCN(CCCOc2ccc(S(=O)(=O)NCCCc3c[nH]c4ccc(Cl)cc34)c3ccccc23)CC1 [Example 86, N-(3-(5-chloro-1H-indole-3-yl)propyl)-4-(3-(4-methylpiperazine-1-yl)propoxy)naphthalene-1-sulfonamide] | 70 to 100 | < 1 |  |  | < 1 |  | 
21 | O=S(=O)(NCC1CCc2[nH]c3ccc(F)cc3c2C1)c1ccc(OCCCN2CCNCC2)cc1 (stereo not drawn) [Example 188, N-((6-fluoro-2,3,4,9-tetrahydro-1H-carbazol-3-yl)methyl)-4-(3-(piperazin-1-yl)propoxy)benzenesulfonamide] |  | < 1 | > 10 |  | < 1 | < 1 | < 1
22 | CN1CCN(CCCOc2ccc(S(=O)(=O)NCC3CCc4[nH]c5ccccc5c4C3)cc2)CC1 (stereo not drawn) [Example 189, 4-(3-(4-methylpiperazin-1-yl)propoxy)-N-((2,3,4,9-tetrahydro-1H-carbazol-3-yl)methyl)benzenesulfonamide] |  | < 1 | > 10 |  | < 1 | < 1 | < 1
23 | O=S(=O)(NCC1CCc2[nH]c3ccccc3c2C1)c1ccc(OCCCN2CCNCC2)cc1 (stereo not drawn) [Example 190, 4-(3-(piperazin-1-yl)propoxy)-N-((2,3,4,9-tetrahydro-1H-carbazol-3-yl)methyl)benzenesulfonamide] |  | < 1 | > 10 |  | < 1 | < 1 | < 1
